Source: US20160015770A1, “COMPOSITIONS FOR TREATMENT OF RETINAL DETACHMENT” (THE REGENTS OF THE UNIVERSITY OF MICHIGAN, priority 2013, published 2016)

Target: T1, calpain 1 (Mus musculus, UniProt O35350)
T1 construct: endogenous in cells; host or cells: 661W mouse photoreceptor cell line
T1 sequence (O35350 1-713): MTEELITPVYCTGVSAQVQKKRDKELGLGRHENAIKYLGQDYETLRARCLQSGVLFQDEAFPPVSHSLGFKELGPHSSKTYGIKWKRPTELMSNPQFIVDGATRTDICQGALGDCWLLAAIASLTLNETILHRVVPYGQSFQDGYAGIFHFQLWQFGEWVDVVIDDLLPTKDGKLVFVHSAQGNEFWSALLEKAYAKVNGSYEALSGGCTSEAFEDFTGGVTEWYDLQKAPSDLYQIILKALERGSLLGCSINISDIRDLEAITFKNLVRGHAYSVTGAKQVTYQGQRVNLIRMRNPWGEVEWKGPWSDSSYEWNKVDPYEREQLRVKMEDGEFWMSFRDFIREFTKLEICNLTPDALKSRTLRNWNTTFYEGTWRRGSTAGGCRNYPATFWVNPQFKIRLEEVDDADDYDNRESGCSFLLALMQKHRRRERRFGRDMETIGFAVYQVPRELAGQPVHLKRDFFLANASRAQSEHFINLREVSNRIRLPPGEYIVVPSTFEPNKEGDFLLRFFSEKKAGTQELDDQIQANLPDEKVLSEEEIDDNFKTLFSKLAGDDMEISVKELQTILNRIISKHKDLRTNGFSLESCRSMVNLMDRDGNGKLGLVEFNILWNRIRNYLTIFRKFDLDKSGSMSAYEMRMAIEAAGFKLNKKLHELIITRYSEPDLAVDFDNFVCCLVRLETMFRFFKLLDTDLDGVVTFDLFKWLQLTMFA
T1 sequence (O88456 1-268 partner): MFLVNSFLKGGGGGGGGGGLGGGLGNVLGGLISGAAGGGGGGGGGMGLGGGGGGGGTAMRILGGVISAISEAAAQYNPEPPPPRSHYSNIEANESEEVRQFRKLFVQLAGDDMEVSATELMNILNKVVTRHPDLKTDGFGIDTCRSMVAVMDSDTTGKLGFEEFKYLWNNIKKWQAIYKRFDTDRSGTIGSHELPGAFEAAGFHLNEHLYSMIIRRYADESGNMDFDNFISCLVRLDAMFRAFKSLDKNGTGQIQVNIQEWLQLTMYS
Assay: Western blot of calpain 1 specific cleaved alpha-spectrin in 661W cells treated with Fas activating antibody
Type: cell-based
Details: 24 hours
Method: The 661W photoreceptor cell line was generously provided by Dr. Muayyad Al-Ubaidi (Department of Cell Biology, University of Oklahoma Health Sciences Center, Oklahoma City, Okla.). The 661W cell line was maintained in Dulbecco's modified Eagle's medium containing 10% fetal bovine serum, 300 mg/L glutamine, 32 mg/L putrescine, 40 μL/L β-mercaptoethanol, and 40 μg/L of both hydrocortisone 21-hemisuccinate and progesterone. The media also contained penicillin (90 units/mL) and streptomycin (0.09 mg/mL). Cells were grown at 37° C. in a humidified atmosphere of 5% CO2 and 95% air.
Retinas from experimental eyes with detachment (detached portion of retina only) and control eyes without detachment were dissected from the RPE-choroid, homogenized, and lysed in buffer containing 10 mM HEPES (pH 7.6), 0.5% IgEPal, 42 mM KCl, 1 mM phenylmethylsulfonyl fluoride, 1 mM EDTA, 1 mM EGTA, 1 mM dithiothreitol, 5 mM MgCl2, and one tablet of protease inhibitors per 10 mL buffer (Complete Mini; Roche Diagnostics GmbH, Madison, Wis.). 661W cells were plated at 150,000 cells per well in six-well culture dishes in growth media. After 24 hours, the cells were washed one time with warmed PBS solution and then placed in growth media without fetal bovine serum. Depending on experimental conditions, 500 ng/mL Fas activating antibody (BD Biosciences, San Jose, Calif.) and various calpain inhibitors including MDG-28170 (Sigma, St. Louis, Mo.), MG-101 (Sigma, St. Louis, Mo.), calpeptin (Santa Cruz Biotechnology, Santa Cruz, Calif.) or equal volume of DMSO was added. Calpain inhibitors were added 1 hour prior to the addition of Fas activating antibody. The cells were incubated for various lengths of time and then lysed and homogenized in lysis buffer. The homogenates were incubated on ice and centrifuged at 22,000 g at 4° C. for 60 minutes. The protein concentration of the supernatant was then determined (DC Protein Assay kit; Bio-Rad Laboratories, Hercules, Calif.). The protein samples were separated on SDS-polyacrylamide gels (Tris-HCl Ready Gels; Bio-Rad Laboratories). After electrophoretic separation, the proteins were transferred onto polyvinylidene fluoride membranes (Immobilon-P; Millipore, Billerica, Mass.). Membranes were then immunoblotted with antibodies according to the manufacturer's instructions. The following antibodies were used: LC3b (Cell Signaling, Beverly, Mass.), Atg5 (Abgent, San Diego, Calif.), Atg12 (Cell Signaling, Beverly, Mass.), calpain 1 (Cell Signaling, Beverly, Mass.), alpha-spectrin (Santa Cruz Biotechnology, Santa Cruz, Calif.), actin (Sigma, St. Louis, Mo.), and GAPDH (Abcam, Cambridge, Mass.).
After determining calpain 1 levels, it was looked to correlate this with calpain activity. […]

In the case of `CCCC[C@@H](C=O)NC(=O)[C@H](CC(C)C)NC(=O)OCc1ccccc1` [calpeptin], the “relative size of the effect on cleaved alpha-spectrin among the calpain inhibitors” value (Fas activating antibody, two concentrations) is reported as “largest effect” and the cleaved alpha-spectrin levels (inhibitor added 1 hour before Fas activating antibody, compared to Fas activation alone) is reported as “decreased”.
